Measured values taken from patent US20240082272A1, “COMPOSITIONS AND METHODS FOR TREATING WNT-DRIVEN CANCER” (The Regents of the University of Michigan, priority 2020, published 2024).

Tests used:
NCI-H295R = assay: RNA-seq transcriptome of NCI-H295R after drug treatment; format: cell-based; details: for differentially expressed genes overlapping between EZH2i and CBPi: 96-hour IC-50 administration
Procedure: FIG. 6. Forskolin induces faithful zF differentiation and steroidogenesis in NCI-H295R. […] The induction of immediate early response programs is consistent with known mechanisms of action of PKA.
(§1) FIG. 21. EZH2i and CBPi redundantly disrupt the NCI-H295R transcriptome. […] Right, gene expression changes induced by EZH2i and CBPi are strongly correlated. […] C.
To evaluate if EZH2i disrupted zF differentiation, the NCI-H295R was treated with the zF differentiation agent forskolin and the transcriptome was profiled by RNA-seq. Despite that CIMP-high as a class is at the zF differentiation maximum across human ACC (FIG. 5), the presence of mutant CTNNB1 in this cell line and high levels of nuclear β-catenin are likely to enable faithful responsiveness to forskolin and refractory response to Wnt/β-catenin stimulants, analogously to the Y1 cell line.
The NCI-H295R response to CBPi was evaluated by RNA-seq and compared to the NCI-H295R response to EZH2i. […] Similarly to EZH2i, CBPi induces downregulation of all core modules that define CIMP-high ACC (FIG. 22). Taken together, the results point to adrenocortical differentiation as a targetable therapeutic vulnerability selected for in CIMP-high ACC.

[1] = tested on: subcutaneous, immunodeficient xenograft model of adrenal cancer; assay: Subcutaneous xenograft model of adrenal cancer; format: in vivo, mouse; details: 200 mg/kg PO daily, compared to vehicle
Procedure: To test if disruption of SF1/β-catenin complexes in vivo can cause dedifferentiation (Example 1 and 2) and disrupt tumor growth, the impact of EZH2 inhibition on a xenograft model derived from the Borges et al. Oncogene 2020 genetically engineered mouse model detailed in FIG. 25 was assayed.

NCI-H295R, ATC7L, and Y1 = assay: Viability of ACC cell lines with CBPi alone or combined with EZH2i; format: cell-based; details: increasing doses of CBPi combined with EZH2i at the IC-50 dose for each cell line; all ACC cell lines
Procedure: FIG. 20. EZH2i and CBPi are synergistic in ACC cell lines. NCI-H295R, ATC7L, and Y1 were treated with increasing doses of CBPi (PRI-724), alone or in combination with EZH2i at the IC-50 dose for each cell line (EZH2i viability curves for ATC7L and Y1 not shown).
ACC cell lines were treated with a specific and irreversible inhibitor of the H3K27 acetyltransferase CBP (PRI-724 (Kahn, 2014)). CBP regulates H3K27ac deposition genome-wide including at enhancers, and CBP-dependent H3K27ac deposition is required for enhancer activity (Merika et al., 1998; Raisner et al., 2018). Cell lines received the CBP inhibitor (CBPi) either alone or combination with EZH2i at the determined IC-50 dose for that cell line.

HSD3B2 = HSD3B2 expression by qPCR in NCI-H295R; format: cell-based; details: doses under the IC-50
From the text: FIG. 7. EZH2i reverses zF differentiation. […] Representative experiment shown, n>3. C.
as §1

Compound	differentially expressed genes overlapping between EZH2i and CBPi (NCI-H295R)	tumor growth [1]	expression of SF1 ([1]; immunohistochemistry)	steroidogenesis (RNA-seq) (NCI-H295R)	loss of viability in combination (NCI-H295R, ATC7L, and Y1)	HSD3B2 expression (HSD3B2)
CCN(c1cc(-c2ccc(CN3CCOCC3)cc2)cc(C(=O)NCc2c(C)cc(C)[nH]c2=O)c1C)C1CCOCC1 [EPZ-6438]	~70%	decreases tumor growth	decreasing expression of SF1	–	–	–
C[C@H]1[C@H]2N(C(=O)CN(C)N2C(=O)NCc2ccccc2)[C@@H](Cc2ccc(OP(=O)(O)O)cc2)C(=O)N1Cc1cccc2cccnc12 [PRI-724]	~70%	–	–	potent downregulation of steroidogenesis	synergistic	dose-dependent downregulation
